Data taken from patent publication US20030124653A1, “Method of producing glycoproteins having reduced complex carbohydrates in mammalian cells” (NOVAZYME PHARMACEUTICALS, INC., priority 2001, published 2003).

Tested on: CHO cell line (GAA LEC clone R3.3) expressing rh-GAA
Test: Phosphorylation efficiency of rh-GAA from cultures containing mannosidase inhibitors ([32P] incorporation by GlcNAc phosphotransferase)
Type: cell-based, Chinese Hamster
Settings: for [^32P] Phosphate Incorporation (cpm): conditioned media with 6 μg GAA; for effect on the phosphorylation reaction of rh-GAA: increasing amounts of inhibitor alone, versus GAA cultured without mannosidase inhibitors (FIG. 1)
Protocol: To determine whether mannosidase inhibitors can increase phosphorylation efficiency of recombinant human acid alpha glucosidase (rh-GAA), a CHO cell line (GAA LEC clone R3.3) expressing rh-GAA was grown in various conditions that contained different amounts of the following mannosidase the inhibitors: Kifunensin; Deoxymannojirimycin (DMJ); or combinations of both inhibitors. Conditioned media from each inhibitor condition containing 6 μg of GAA (based on GAA activity assay) was then incubated with purified bovine GlcNAc phosphotransferase (Pt'ase) and [^32P]UDP-GlcNAc. Subsequently, each phosphorylation reaction was loaded onto a concanavalin A-sepharose column to capture glycoproteins, e.g., rh-GAA. The concanavalin A-sepharose was washed and the resin was counted in a liquid scintillation counter to measure the ^32P incorporation, i.e., the extent of phosphorylation on rh-GAA. The results are summarized in Table 1 below and FIGS. 1 and 2.

## OC[C@H]1NC[C@@H](O)[C@@H](O)[C@@H]1O [DMJ only, deoxymannojirimycin]
0.5 mM inhibitor in culture
  [^32P] Phosphate Incorporation (cpm): 3656 cpm
1.0 mM inhibitor in culture
  [^32P] Phosphate Incorporation (cpm): 4500 cpm
1.75 mM inhibitor in culture
  [^32P] Phosphate Incorporation (cpm): 4450 cpm
2.5 mM inhibitor in culture
  [^32P] Phosphate Incorporation (cpm): 7258 cpm
5.0 mM inhibitor in culture
  [^32P] Phosphate Incorporation (cpm): 6413 cpm
  effect on the phosphorylation reaction of rh-GAA: greatly enhance

## O=C1N[C@@H]2[C@@H](O)[C@@H](O)[C@H](O)[C@@H](CO)N2C1=O [Kifunensin only, kifunensine]
0.5 μg/ml inhibitor in culture
  [^32P] Phosphate Incorporation (cpm): 6675 cpm
1.0 μg/ml inhibitor in culture
  [^32P] Phosphate Incorporation (cpm): 8585 cpm
2.5 μg/ml inhibitor in culture
  [^32P] Phosphate Incorporation (cpm): 7147 cpm
5.0 μg/ml inhibitor in culture
  [^32P] Phosphate Incorporation (cpm): 6717 cpm
10.0 μg/ml inhibitor in culture
  [^32P] Phosphate Incorporation (cpm): 7116 cpm
  effect on the phosphorylation reaction of rh-GAA: greatly enhance
